Laboratory results reported in ChEMBL document CHEMBL3108708, “Discovery of Tertiary Amine and Indole Derivatives as Potent RORγt Inverse Agonists” (ACS Med Chem Lett, 2014).

Columns and labels:
[1] = target: T1, Nuclear receptor ROR-gamma (Mus musculus, UniProt P51450); assay: Inverse agonist activity at RORgammat in mouse Th17 cells assessed as effect on cell differentiation measured as IL-17 level after 3 days by ELISA; format: cell-based
T1 sequence (P51450 whole entry): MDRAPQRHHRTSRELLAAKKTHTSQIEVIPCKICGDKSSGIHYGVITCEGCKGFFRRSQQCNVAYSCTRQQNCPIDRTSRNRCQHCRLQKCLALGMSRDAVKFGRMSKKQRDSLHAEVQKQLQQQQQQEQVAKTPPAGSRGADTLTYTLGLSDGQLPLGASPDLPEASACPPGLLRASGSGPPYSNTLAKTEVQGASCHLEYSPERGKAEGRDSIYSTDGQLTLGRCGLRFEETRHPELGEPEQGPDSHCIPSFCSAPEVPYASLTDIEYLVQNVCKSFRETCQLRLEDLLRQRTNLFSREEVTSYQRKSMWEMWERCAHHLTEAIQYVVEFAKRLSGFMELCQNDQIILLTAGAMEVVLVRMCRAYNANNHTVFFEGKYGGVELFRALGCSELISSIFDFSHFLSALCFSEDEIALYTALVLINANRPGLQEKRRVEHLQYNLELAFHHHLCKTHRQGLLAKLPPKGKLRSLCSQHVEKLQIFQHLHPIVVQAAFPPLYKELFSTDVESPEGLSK

[2] = target: T2, Nuclear receptor ROR-gamma (Homo sapiens, UniProt P51449)
T2 sequence (P51449 whole entry): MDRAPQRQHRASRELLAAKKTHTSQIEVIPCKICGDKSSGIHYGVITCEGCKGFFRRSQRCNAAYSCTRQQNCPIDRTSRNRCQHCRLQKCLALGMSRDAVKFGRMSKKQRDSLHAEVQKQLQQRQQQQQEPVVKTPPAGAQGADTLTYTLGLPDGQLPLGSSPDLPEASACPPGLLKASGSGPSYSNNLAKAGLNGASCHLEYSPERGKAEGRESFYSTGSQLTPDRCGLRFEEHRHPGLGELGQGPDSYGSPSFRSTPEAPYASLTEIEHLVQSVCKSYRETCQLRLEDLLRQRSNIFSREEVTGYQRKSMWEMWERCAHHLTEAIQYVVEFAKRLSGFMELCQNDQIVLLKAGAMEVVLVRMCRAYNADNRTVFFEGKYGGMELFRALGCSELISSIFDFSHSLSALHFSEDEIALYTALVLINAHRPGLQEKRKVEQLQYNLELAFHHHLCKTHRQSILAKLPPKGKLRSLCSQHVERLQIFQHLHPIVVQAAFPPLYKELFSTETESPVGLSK
Description: Inverse agonist activity at biotinylated human RORgammat LBD expressed in Escherichia coli BL21 assessed as inhibition of SRC1 recruitment after 1 hr by FRET assay in presence of N-(2-chloro-6-fluorobenzyl)-N-((2'-methoxy-[1,1'-biphenyl]-4-yl)methyl)benzenesulfonamide

[3] = target: T2, Nuclear receptor ROR-gamma; remark: listed apart in the source
Description: Inverse agonist activity at biotinylated human RORgammat expressed in Escherichia coli BL21 assessed as effect on recruitment of SRC1/2 after 1 hr by dual-FRET assay

[4] = target: T3, Nuclear receptor ROR-gamma (Homo sapiens) (UniProt P51449)
T3 sequence (whole entry): T2 sequence (P51449 whole entry)
Description: Binding affinity to human RORgammat expressed in Escherichia coli BL21 assessed as melting temperature by thermal shift assay

| IC50 [1] | Structure (SMILES) | further results |
| --- | --- | --- |
| 1020 nM | CCS(=O)(=O)c1ccc(CC(=O)Nc2ccc(NCCc3ccc(C(F)(F)F)cc3)c(Cl)c2)cc1 | – |
| 70 nM | CCS(=O)(=O)c1ccc(CC(=O)Nc2ccc3c(ccn3CCc3ccc(OC(C)C)cc3)c2)cc1 | – |
| 164 nM | CCS(=O)(=O)c1ccc(CC(=O)Nc2ccc3c(ccn3CCc3ccc(Cl)cc3)c2)cc1 | – |
| 320 nM | CCCN(Cc1ccc(NC(=O)Cc2ccc(S(=O)(=O)CC)cc2)cc1)Cc1ccc(C(F)(F)F)cc1 | – |
| 40 nM | CCS(=O)(=O)c1ccc(CC(=O)Nc2ccc3c(ccn3CCc3ccc(Cl)c(Cl)c3)c2)cc1 | – |
| – | CCCN(Cc1ccc(C)cc1)Cc1ccc(NC(=O)Cc2ccc(S(=O)(=O)CC)cc2)cc1 | IC50 [2]: > 25000 nM; EC50 [3]: 25 nM |
| 457 nM | CCS(=O)(=O)c1ccc(CC(=O)Nc2ccc3c(ccn3CCc3ccc(C#N)cc3)c2)cc1 | – |
| – | CCS(=O)(=O)c1ccc(CC(=O)Nc2nc(-c3cc(Cl)ccc3Cl)cs2)cc1 | ΔTm [4]: 7.1 °C; IC50 [2]: 1000 nM; IC50 [3]: 1000 nM |
| 31 nM | CCS(=O)(=O)c1ccc(CC(=O)Nc2ccc3c(ccn3CCc3ccc(C(F)(F)F)cc3)c2)cc1 | – |
| > 10000 nM | CCS(=O)(=O)c1ccc(CC(=O)Nc2ccc(CNCc3ccc(C(F)(F)F)cc3)cc2)cc1 | – |
| 733 nM | CCCN(CCc1ccc(C(F)(F)F)cc1)c1ccc(NC(=O)Cc2ccc(S(=O)(=O)CC)cc2)cc1 | – |
| 9 nM | CCS(=O)(=O)c1ccc(CC(=O)Nc2ccc3c(ccn3CCc3ccc(Cl)cc3Cl)c2)cc1 | – |
